{"source": "patent US10836792B2", "about": "“Retro-inverso peptide inhibitors of cell migration, extracellular matrix and endothelial invasion by tumor cells” (ISTITUTO NAZIONALE TUMORI IRCCS “FONDAZIONE G. PASCALE”, priority 2016, dated 2020)", "key": {"[1]": {"system": "ovarian carcinoma SKOV-3", "experiment": "Trans-endothelial migration through HUVEC monolayer (xCELLigence RTCA), SKOV-3", "assay_type": "cell-based, human", "settings": "10 nM, 5 hrs", "protocol": "(§1) FIG. 9 At the concentration of 10 nM the retro-inverso peptide RI-3 affects trans-endothelial migration of human chondrosarcoma Sarc (A), melanoma A375 (B), ovarian carcinoma SKOV-3 (C) cells, or THP1 monocytes (D), as monitored by the xCELLigence RTCA system (Example 9).\n(§2) The entry of tumor cells into bloodstream is one of the earliest events of the metastatic process. The ability of RI-3 to affect trans-endothelial migration of human chondrosarcoma Sarc (A) melanoma A375 (B), ovarian carcinoma SKOV-3 (C) cells, or THP1 monocytes (D) was monitored by the xCELLigence RTCA system. Human Umbilical Vein Endothelial Cells (HUVEC) (1×10^4 cells/well) suspended in growth medium, were allowed to grow for 20-25 hrs until they form a confluent monolayer, prior to seeding Sarc, A375, SKOV-3, or THP-1 cells (1×10^4 cells/well) in growth medium in the absence (None) or in the presence of 10 nM RI-3. The experiments were performed twice in quadruplicate. When cells cross the endothelial monolayer, there is a drop in electrical resistance which is monitored in real-time for 5 hrs as the cell index changes due to the rupture of endothelial monolayer. All cell lines were able to reduce endothelial monolayer integrity. The addition of 10 nM RI-3 inhibited the capability of Sarc, A375, SKOV-3, and THP-1 cells to disrupt endothelial monolayers by 17%, 22%, 58%, and 36% respectively."}, "[2]": {"system": "chondrosarcoma Sarc", "experiment": "Matrigel invasion (xCELLigence RTCA), Sarc", "assay_type": "cell-based, human", "settings": "10 nM, 20 hrs", "protocol": "FIG. 8 At the concentration of 10 nM the retro-inverso peptide RI-3 prevents matrigel invasion of tumor cells from human osteosarcoma Saos-2 (A), chondrosarcoma Sarc (B), melanoma A375 (C), metastatic melanoma A375M6 (D), ovarian carcinoma SKOV-3 cells (E), or primary ovarian cancer cells derived from a tumor excision (OV-53) (F), as monitored in real-time for 20 hr as changes in cell index by the xCELLigence RTCA system (Example 8).\nTo investigate the ability of RI-3 to prevents matrigel invasion of tumor cells form different tissue origins, human osteosarcoma Saos-2 (A), chondrosarcoma Sarc (B) melanoma A375 (C), metastatic melanoma A375M6 (D), ovarian carcinoma SKOV-3 cells (E) or primary ovarian cancer cells derived from a tumor excision (OV-53) (F) were seeded on polymerized matrigel and allowed to invade matrigel in the absence (None) or in the presence of 10 nM RI-3. Cell invasion was monitored in real-time for 20 hrs as changes in cell index by the xCELLigence RTCA system. Data represent mean±SD from quadruplicate experiments. All cell lines were able to cross matrigel, although to a different extent. In all case RI-3 reduced matrigel invasion by about 30%, 31%, 64%, 57%, 53% and 68%, of Saos-2, Sarc, A375, A375M6, SKOV-3 and OV-53 cells, respectively."}, "[3]": {"system": "HT1080 cells", "experiment": "FBS-directed migration of HT1080 cells in Boyden chambers", "assay_type": "cell-based, human", "settings": "10 nM peptide, 10% FBS, 4 hrs", "protocol": "FIG. 4 Retro-inverso peptides inhibit FBS-directed migration of HT1080 cells in a dose dependent manner (Example 4).\nTo assess whether retro-inverso peptides exert some effect on directional cell migration, HT1080 cells were allowed to migrate for 4 hrs in Boyden chambers toward serum-free medium (CTRL), 10% FBS (None) or 10% FBS mixed with peptides, each tested at 10 nM concentration. For quantitative analysis, the basal values assessed in the absence of FBS (CTRL) was taken as 100% and all values were reported relative to that. Data are the means±SD of two independent experiments, performed in triplicate. Statistical significance calculated against None with *p<0.01, **p<0.001 (A). All retro-inverso peptides caused a reduction of FBS-directed cell migration although to different extent. Peptides RI-1, RI-2, RI-3, RI-4 and RI-5 reduced by 49%, 46%, 65%, 9% and 6%, respectively, the extent of FBS-directed cell migration. Similar results were obtained when, HT1080 cell migration was monitored in real time for 18 hrs at 37° C., 5% CO2 by the xCELLigence system. Data represent mean±SD from a quadruplicate experiment representative of 2 replicates (B). Then, HT1080 cells were allowed to migrate in Boyden chambers toward 10% FBS plus increasing concentrations of RI-3, and data were expressed as a percentage of cells migrated toward FBS alone (100%) Inhibitory effect of RI-3 is dose-dependent, it starts in the high fM range, it seems to level off in the nM range and reaches an overall 50% reduction at 1×10^−13M (C)."}, "[4]": {"experiment": "Stability in human serum, read out by HT1080 matrigel invasion in Boyden chambers", "assay_type": "in vitro ADME", "settings": "10^−3 mol/L in serum 18 hrs at 37° C., then 10 nM, invasion 6 hrs", "protocol": "(§3) FIG. 7 The retro-inverso peptide RI-3 is stable when pre-incubated in bovine (A) or human serum (B) as assessed in real time using the xCELLigence technology (A) or in Boyden chambers (B) (Example 7).\n(§4) The stability of the retro-inverso peptide RI-3 in bovine and human serum was investigated through incubation of the peptide at a 10^−3 mol/L in serum for 18 hrs at 37° C. HT1080 cells were allowed to migrate toward DMEM (CTRL), 10% FBS (None), 10% FBS plus 10 nM RI-3 or 10% FBS with 10 nM RI-3 pre-incubated with bovine serum and the impedance values were automatically monitored in real time by the xCELLigence system for 18 hrs and expressed as cell index. Data represent the means from a quadruplicate experiment representative of 2 replicates. […] The stability of RI-3 in human serum was further investigated in cell invasion experiments performed in Boyden chambers. HT1080 cells were allowed to invade matrigel for 6 hrs, toward DMEM (CTRL), 10% FBS (None), 10% FBS plus 10 nM RI-3 or 10% FBS with 10 nM RI-3 pre-incubated with human serum. For quantitative analysis of cell invasion, the basal value assessed in the absence of FBS (CTRL) was taken as 100% and all values were reported relative to that. Data are the means±SD from a triplicate experiment. *Statistical significance was calculated against None with p<0.005. […]"}, "[5]": {"experiment": "Stability in bovine serum, read out by HT1080 migration (xCELLigence)", "assay_type": "in vitro ADME", "settings": "10^−3 mol/L in serum 18 hrs at 37° C., then tested at 10 nM", "protocol": "as §3, §4"}, "[6]": {"system": "melanoma A375", "experiment": "Trans-endothelial migration through HUVEC monolayer (xCELLigence RTCA), A375", "assay_type": "cell-based, human", "settings": "10 nM, 5 hrs", "protocol": "as §1, §2"}}, "note": "Non-standard residues stand in square brackets, D forms with d. Residues, ends and D or L forms follow the SMILES beside them. Aib = CC(C)(N)C(=O)O", "data": [{"smiles": "CC(=O)N[C@H](Cc1ccc(O)cc1)C(=O)N[C@H](CCCNC(=N)N)C(=O)NC(C)(C)C(=O)N[C@H](CCCNC(=N)N)C(N)=O", "note": "[RI-3, Ac-(D)-Tyr-(D)-Arg-Aib-(D)-Arg-NH2] (Ac-[dY][dR][Aib][dR]-NH2)", "values": [{"measurement": "inhibition of the capability to disrupt endothelial monolayers", "setting": "[1]", "result": 58, "unit": "%"}, {"measurement": "reduction of matrigel invasion", "setting": "[2]", "result": "~31", "unit": "%"}, {"measurement": "reduction of the extent of FBS-directed cell migration", "setting": "[3]", "result": 65, "unit": "%"}, {"measurement": "inhibitory activity retained after pre-incubation with human serum", "setting": "[4]", "result": 81, "unit": "%"}, {"measurement": "stability after pre-incubation in bovine serum", "setting": "[5]", "result": "stable to enzymatic digestion"}, {"measurement": "inhibition of the capability to disrupt endothelial monolayers", "setting": "[6]", "result": 22, "unit": "%"}]}]}
